In the test the target is T1, LipL (Streptomyces sp., UniProt D4QF25).
T1 sequence (D4QF25 1-274): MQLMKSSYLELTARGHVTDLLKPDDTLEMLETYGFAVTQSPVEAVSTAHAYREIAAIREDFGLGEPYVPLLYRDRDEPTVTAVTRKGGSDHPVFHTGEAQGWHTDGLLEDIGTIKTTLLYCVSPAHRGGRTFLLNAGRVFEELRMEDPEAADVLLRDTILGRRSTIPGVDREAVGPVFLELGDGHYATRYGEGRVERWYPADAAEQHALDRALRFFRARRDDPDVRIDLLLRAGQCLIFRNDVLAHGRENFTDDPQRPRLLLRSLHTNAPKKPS
In kind it is biochemical.

The compound `O=c1ccn([C@@H]2O[C@H](CCP(=O)(O)O)[C@@H](O)[C@H]2O)c(=O)[nH]1` [UMcP, 5′-deoxyuridine-5′-methylphosphonate] came in with a Ki of 800 nM.

A word on the Ki: it is the equilibrium dissociation constant of an inhibitor or competing ligand from its target. A lower Ki goes with higher affinity.

(Values after PMC5380139 (FEBS letters, 2017).)
